Measurements reported in ChEMBL document CHEMBL1127718, “Quinoline-4-carboxylic acids as angiotensin II receptor antagonists” (Bioorg Med Chem Lett, 1994).

Experiments:
Oryctolagus cuniculus = species: Oryctolagus cuniculus; experiment: In vitro functional antagonism was determined by ability of a single concentration of compound to block AII induced contractions in rabbit aortic smooth muscle strip; conditions: Aorta
[1] = target: T1, Type-1 angiotensin II receptor B (Rattus norvegicus, UniProt P29089); experiment: Inhibition of [125I]Sar1,Ile8 angiotensin II binding to Angiotensin II receptor type 1 in rat adrenocortical membrane; assay type: cell membranes
T1 sequence (P29089 whole entry): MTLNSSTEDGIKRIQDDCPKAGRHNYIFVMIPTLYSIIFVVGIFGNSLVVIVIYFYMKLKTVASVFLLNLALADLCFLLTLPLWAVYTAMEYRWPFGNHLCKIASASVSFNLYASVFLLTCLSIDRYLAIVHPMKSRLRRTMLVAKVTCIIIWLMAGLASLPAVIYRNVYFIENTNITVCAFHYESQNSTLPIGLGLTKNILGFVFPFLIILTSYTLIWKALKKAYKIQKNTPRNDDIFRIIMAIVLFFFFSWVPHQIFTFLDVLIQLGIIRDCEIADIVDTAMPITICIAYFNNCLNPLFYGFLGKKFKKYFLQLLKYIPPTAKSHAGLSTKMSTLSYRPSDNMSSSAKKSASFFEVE

Compound | Ki [1] | Kb (Oryctolagus cuniculus)
Cc1cccc2c(C(=O)O)c(Oc3ccc(-c4ccccc4-c4nnn[nH]4)cc3)c(C3CC3)nc12 | 1300 nM | 8.3 nM
Cc1cccc2nc(C3CC3)c(Oc3ccc(-c4ccccc4-c4nnn[nH]4)cc3)c(C(=O)O)c12 | 12 nM | 0.4 nM
O=C(O)c1c(Oc2ccc(-c3ccccc3-c3nnn[nH]3)cc2)c(C2CC2)nc2cccnc12 | 2.1 nM | 0.67 nM
O=C(O)c1c(Oc2ccc(-c3ccccc3-c3nnn[nH]3)cc2)c(C2CC2)nc2ncccc12 | 4.6 nM | 0.76 nM
O=C(O)c1cccc2nc(C3CC3)c(Oc3ccc(-c4ccccc4-c4nn[nH]n4)cc3)c(C(=O)O)c12 | 120 nM | 2 nM
O=C(O)c1c(Oc2ccc(-c3ccccc3-c3nnn[nH]3)cc2)c(C2CC2)nc2ccc(F)cc12 | 14 nM | 0.61 nM
COc1ccc2nc(C3CC3)c(Oc3ccc(-c4ccccc4-c4nn[nH]n4)cc3)c(C(=O)O)c2c1 | 33 nM | 0.2 nM

Second part, led by results:

Ki [1] | Compound | Kb (Oryctolagus cuniculus)
2.9 nM | O=C(O)c1c(Oc2ccc(-c3ccccc3-c3nn[nH]n3)cc2)c(C2CC2)nc2ccccc12 | 0.061 nM
3.2 nM | Cc1nc2ccccc2c(C(=O)O)c1Oc1ccc(-c2ccccc2-c2nn[nH]n2)cc1 | 1.1 nM
5.9 nM | CCc1nc2ccccc2c(C(=O)O)c1Oc1ccc(-c2ccccc2-c2nn[nH]n2)cc1 | 0.12 nM
3.4 nM | CCCc1nc2ccccc2c(C(=O)O)c1Oc1ccc(-c2ccccc2-c2nnn[nH]2)cc1 | 0.091 nM
32 nM | O=C(O)c1c(Oc2ccc(-c3ccccc3-c3nn[nH]n3)cc2)c(C2CC2)nc2cc(Cl)ccc12 | 0.18 nM
